From US11590101B2, “Use of a composition comprising 7-hydroxymatairesinol” (LINNEA S.A., priority 2017, dated 2023)

Assays:
[1] = HMR plasma levels assay (LC-MS/MS); format: in vivo; conditions: rat, oral, rats fed 4 weeks with 5% sucrose enriched food with HMR (10 mg/Kg per day), all active treatment groups
Experimental: Concentration of HMR and its major metabolite enterolactone was measured in plasma samples (50 μL) from rats fed for 4 weeks with 5% sucrose enriched food with HMR, using an LC-MS/MS system (AP14500 Qtrap ABSciex).
Calibration curves in the range from 0.1 ng/mL to 100 ng/mL were obtained from measurements on control samples containing the pure analytes, prepared from stock solutions of HMR and enterolactone in MeOH at the concentration of 1 mg/mL. Said stock solutions were diluted in acetonitrile (ACN) at a concentration of 250 μg/mL, then working solutions were prepared by sequential dilution in ACN.
45 μL of plasma and 5 μL of working solution were added to 300 μL of an ACN solution containing the internal standard catechin (conc. 200 ng/mL). After mixing, samples were centrifuged for 5 min at 3000 g at 5° C., and injected into LC-MS/MS.
The plasma samples from the in vivo treatment were prepared subjecting 50 μl of sample to centrifugation for 5 min at 3000 g at 5° C., and were injected into LC-MS/MS.
Calibration curves allowed determining, by comparison, the amount of each analytes in the plasma samples obtained from the rats of the study.

[2] = tested on: rodent model of Parkinson's disease-like nigrostriatal neurodegeneration caused by stereotaxic injection of 6-OHDA; assay: Nigrostriatal damage evaluation by TH immunohistochemistry in 6-OHDA model; format: in vivo, rat
[3] = tested on: microglia in the lesioned SNc; assay: Neuroinflammation evaluation through microglia activation assessment (CD11b staining of lesioned SNc); format: in vivo, rat; set-up: key to Colburn's score (microglia morphology): Resting stage (score 0): microglial cells are ramified, well spaced-out, with a small cell body.; Stage 1 (score +): microglial cells are ramified, with a decreased intercellular space.; Stage 2 (score ++): microglial cells show a loss of ramification and increased density.; Stage 3 (score +++): microglial cells show short and think ramifications; conditions: for Colburn's score (microglia morphology): control group ++
Experimental: The evaluation of the 6-OHDA induced neuroinflammation was carried out via immunofluorescent staining of coronal SNc sections of both HMR-treated and control animals.
Microglia activation was assessed by observing sections of the lesioned SNc stained for CD11 b, under low and medium magnification (20×-40×), both quantitatively, by counting the microglial cells in the lesioned SNc, and qualitatively, analysing the morphological changes of the cells.
Mouse anti CD11b (MCA275R, Serotec, 1:300) primary antibody was used to assess microglia activation and density in the SNc. Anti-TH primary antibody was added for localization and cell count. Goat anti-mouse AlexaFluor488 and goat anti-rabbit AlexaFluor594 (Life Sciences, 1:300) were used as secondary antibodies.
Cell count was performed by analysing three different SNc sections, chosen according to rostro-caudal coordinates.
Morphological changes mirroring the state of activation were scored according to the Colburn scale. Cell density was assessed by counting CD11 b+ cells from a stack of 16 pictures (in a 0.04 mm^2 frame, 1 μm-thick, 40× magnification) taken from three discrete areas of the same SNc section.
Colburn's scale takes into account four activation stages, which differ for the cells morphology and density, and are summarized below.
Resting stage (score 0): microglial cells are ramified, well spaced-out, with a small cell body.
Stage 1 (score +): microglial cells are ramified, with a decreased intercellular space.
Stage 2 (score ++): microglial cells show a loss of ramification and increased density.
Stage 3 (score +++): microglial cells show short and think ramifications.

[4] = tested on: microglia in the lesioned SNc; assay: Analysis of microglia polarization (CD32+ M1 / CD206+ M2); format: in vivo, rat; conditions: POST group; vehicle mainly M1, no M2 detected
Experimental: The analysis of microglia polarization was performed by evaluating the percentage of CD32+ and CD206+ cells, respectively M1 and M2 phenotypes marker, of the total microglia cells in the lesioned SNc, using respectively CD32 or CD206 (Santa Cruz, 1:300) antibodies.
Since no significant differences in microglial activation were observed between vehicle-treated animals and animals that received HMR before the intra-striatal injection of 6-OHDA, microglia polarization was evaluated only in the groups treated with HMR after 6-OHDA infusion.

[5] = Oxidative stress evaluation (plasma GSH/GSSG, Glutathione assay kit); format: in vivo, rat; conditions: POST group; not reaching statistical significance
Experimental: Plasma levels of reduced (GSH) and oxidized (GSSG) glutathione were estimated by using a biochemical Glutathione assay kit (Cayman Chemical), as an index of antioxidant effect of HMR treatment.
Results were expressed as a GSH/GSSG ratio.
Since no significant difference in neuroinflammation was observed between vehicle-treated animals and animals that received HMR before the intra-striatal injection of 6-OHDA, oxidative stress was evaluated only in the groups treated with HMR after 6-OHDA infusion.

[6] = Food consumption and body weight monitoring; format: in vivo, rat; conditions: monitored daily throughout the experiments
Excerpt: Food consumption and body weight changes were monitored daily.

[7] = PRE group, day 28 post-surgery, same in HMR-treated and control animals

Compound: COc1cc(CC2C(=O)OCC2C(O)c2ccc(O)c(OC)c2)ccc1O (centres unmarked) [HMR, 7-hydroxymatairesinol]
- concentration at 4 weeks [1]: 0.92 ± 0.74 ng/mL
- Reduction of TH+ terminal loss in lesioned striatum versus control ([2]; POST group: HMR 10 mg/Kg per day for 4 weeks after 6-OHDA, day 28, p<0.05): about 32%
- Reduction of the 6-OHDA induced loss of TH+ neurons in lesioned SNc versus vehicle ([2]; POST group: HMR 10 mg/Kg per day for 4 weeks after 6-OHDA, day 28, p=0.055): about 20%
- TH+ neurons depletion in the SNc, lesioned side versus contralateral hemisphere [2, 7]: up to 55%
- TH+ terminals loss in the striatum, lesioned side [2, 7]: ≤ 65%
- Nigrostriatal damage (striatal or SNc level) versus vehicle-treated animals ([2]; PRE group: HMR 10 mg/Kg per day in food for 4 weeks before 6-OHDA): no differences in nigrostriatal damage
- Colburn's score (microglia morphology) ([3]; POST group (HMR after 6-OHDA)): +
- Density of CD11b+ cells in the SNc ([3]; POST group, vehicle-treated group 750 cells/mm^2, significant decrease): 550 cells/mm^2
- Microglial cell count versus vehicle-treated animals ([3]; PRE group): no differences in the microglial cell count
- Colburn's score (microglia morphology) ([3]; PRE group (HMR before 6-OHDA)): ++
- Number of CD11b+ cells per mm^2 of SNc ([3]; PRE group, average, both HMR and vehicle groups): 750 cells/mm^2
- Microglia polarization phenotype (M1 CD32+ / M2 CD206+) [4]: mainly oriented toward the neuroprotective, M2 (CD11b+/CD206+) phenotype
- Plasma GSH/GSSG ratio versus vehicle-treated animals [5]: trend toward an increased GSH/GSSG ratio
- Food intake or weight gain, treated versus untreated rats [6]: No differences
